For the assay, the system named is S. pneumoniae ATCC 49619. As to the kind of experiment: Minimal inhibitory concentration (MIC) by microdilution method (CLSI M7-A7). The note with it: for MIC for S. pneumoniae ATCC 49619: cation-adjusted Mueller-Hinton Broth supplemented with 3% (v/v) lysed horse blood; for MIC: Streptococcus pneumoniae, ATCC49619, cation-adjusted Mueller-Hinton Broth supplemented with 3% (v/v) lysed horse blood. The assay is classed as cell-based, Streptococcus pneumoniae. The protocol:
Minimal inhibitory concentrations (MICs; mg/l) were determined in cation-adjusted Mueller-Hinton Broth (supplemented with 3% (v/v) lysed horse blood for testing Streptococcus pneumoniae) by a microdilution method following the description given in “Methods for Dilution Antimicrobial Susceptibility Tests for Bacteria that Grow Aerobically”, Approved standard, 7th ed., Clinical and Laboratory Standards Institute (CLSI) Document M7-A7, Wayne, Pa., USA, 2006.
Background: Dilution methods test growth across graded concentrations, often in twofold steps.

The values below come from patent US20130096119A1, “Isoquinolin-3-Ylurea Derivatives” (priority 2010, published 2013).

Values after ≈ are worked out from the molar mass of the structure shown.

For orientation: MIC means the lowest concentration that inhibits growth of the organism.

Turning to “1-(8-chloro-5-pyrimidin-4-yl-isoquinolin-3-yl)-3-ethyl-urea [Example 289]”, the “MIC for S. pneumoniae ATCC 49619” value was found to be 2 µg/mL.

“1-[8-(2,4-dimethyl-imidazol-1-ylmethyl)-isoquinolin-3-yl]-3-ethyl-urea and 1-[8-(2,5-dimethyl-imidazol-1-ylmethyl)-isoquinolin-3-yl]-3-ethyl-urea [Example 296]”: the “MIC for S. pneumoniae ATCC 49619” value stood at 8 µg/mL.

As to “1-ethyl-3-[8-(5-hydroxymethyl-imidazol-1-ylmethyl)-isoquinolin-3-yl]-urea and 1-ethyl-3-[8-(4-hydroxymethyl-imidazol-1-ylmethyl)-isoquinolin-3-yl]-urea [Example 293]”, the “MIC for S. pneumoniae ATCC 49619” value came to 4 µg/mL. On to `CCNC(=O)Nc1cc2c(Br)ccc(C)c2cn1` [Example 1, 1-(5-bromo-8-methyl-isoquinolin-3-yl)-3-ethyl-urea], for which the MIC is 1 µg/mL (≈ 3.24 µM). `CCNC(=O)Nc1cc2c(-c3ccc(O)cc3)ccc(C)c2cn1` [Example 2, 1-ethyl-3-[5-(4-hydroxy-phenyl)-8-methyl-isoquinolin-3-yl]-urea] registered an MIC of 2 µg/mL (≈ 6.22 µM). This MIC lies about 2-fold higher than the previous one. Same read-out and setting: as for `CCNC(=O)Nc1cc2c(-c3ccccc3O)ccc(C)c2cn1` [Example 3, 1-ethyl-3-[5-(2-hydroxy-phenyl)-8-methyl-isoquinolin-3-yl]-urea], the figure is 1 µg/mL (≈ 3.11 µM). Regarding `CCNC(=O)Nc1cc2c(-c3cccc(NC(C)=O)c3)ccc(C)c2cn1` [Example 4, N-{3-[3-(3-ethyl-ureido)-8-methyl-isoquinolin-5-yl]-phenyl}-acetamide], the MIC came to 8 µg/mL (≈ 22.1 µM). The same measure, in the same setting: in the case of `CCNC(=O)Nc1cc2c(-c3ccc(C(=O)N(C)C)cc3)ccc(C)c2cn1` [Example 5, 4-[3-(3-ethyl-ureido)-8-methyl-isoquinolin-5-yl]-N,N-dimethyl-benzamide] it was 1 µg/mL (≈ 2.66 µM); in that of `CCNC(=O)Nc1cc2c(-c3ccc(C(=O)NC)cc3)ccc(C)c2cn1` [Example 6, 4-[3-(3-ethyl-ureido)-8-methyl-isoquinolin-5-yl]-N-methyl-benzamide], 0.5 µg/mL (≈ 1.38 µM). In turn, `CCNC(=O)Nc1cc2c(-c3ccc4nccn4c3)ccc(C)c2cn1` [Example 7, 1-ethyl-3-(5-imidazo[1,2-a]pyridin-6-yl-8-methyl-isoquinolin-3-yl)-urea] gave an MIC of 4 µg/mL (≈ 11.6 µM). In turn, `CCNC(=O)Nc1cc2c(-c3ccc(CO)nc3)ccc(C)c2cn1` [Example 8, 1-ethyl-3-[5-(6-hydroxymethyl-pyridin-3-yl)-8-methyl-isoquinolin-3-yl]-urea] yielded an MIC of 4 µg/mL (≈ 11.9 µM). For `CCNC(=O)Nc1cc2c(-c3cncc(F)c3)ccc(C)c2cn1` [Example 9, 1-ethyl-3-[5-(5-fluoro-pyridin-3-yl)-8-methyl-isoquinolin-3-yl]-urea], the MIC was found to be 2 µg/mL (≈ 6.17 µM). For the molecule `CCNC(=O)Nc1cc2c(-c3cncc(C)c3)ccc(C)c2cn1` [Example 10, 1-ethyl-3-[8-methyl-5-(5-methyl-pyridin-3-yl)-isoquinolin-3-yl]-urea], the MIC is 2 µg/mL (≈ 6.24 µM). Still for that read-out and setting: as for `CCNC(=O)Nc1cc2c(-c3cccc(CN)c3)ccc(C)c2cn1` [Example 11, 1-[5-(3-(aminomethyl)-phenyl)-8-methyl-isoquinolin-3-yl]-3-ethyl-urea], the figure is 2 µg/mL (≈ 5.98 µM); as for `CCNC(=O)Nc1cc2c(-c3cccc(CO)c3)ccc(C)c2cn1` [Example 12, 1-ethyl-3-[5-(3-hydroxymethyl-phenyl)-8-methyl-isoquinolin-3-yl]-urea], 8 µg/mL (≈ 23.9 µM); as for `CCNC(=O)Nc1cc2c(-c3cccc(S(N)(=O)=O)c3)ccc(C)c2cn1` [Example 13, 3-[3-(3-ethyl-ureido)-8-methyl-isoquinolin-5-yl]-benzenesulfonamide], 2 µg/mL (≈ 5.2 µM). Still for that read-out and setting: in the case of `CCNC(=O)Nc1cc2cc(-c3ccoc3)cc(C)c2cn1` [Example 14, 1-ethyl-3-(6-furan-3-yl-8-methyl-isoquinolin-3-yl)-urea] it was 4 µg/mL (≈ 13.5 µM); in that of `CCNC(=O)Nc1cc2cc(-c3ccc(CO)cc3)cc(C)c2cn1` [Example 15, 1-ethyl-3-[6-(4-hydroxymethyl-phenyl)-8-methyl-isoquinolin-3-yl]-urea], 0.5 µg/mL (≈ 1.49 µM).

`CCNC(=O)Nc1cc2cc(-c3cccnc3)cc(C)c2cn1` [Example 16, 1-ethyl-3-(8-methyl-6-pyridin-3-yl-isoquinolin-3-yl)-urea] registered an MIC of 2 µg/mL (≈ 6.53 µM). Regarding `CCNC(=O)Nc1cc2cc(C(NC(C)=O)c3ccccc3)cc(C)c2cn1` (centres unmarked) [Example 17, N-{1-[3-(3-ethyl-ureido)-8-methyl-isoquinolin-6-yl]-benzyl}-acetamide], the “MIC for S. pneumoniae ATCC 49619” value was 1 µg/mL. Consider `CCNC(=O)Nc1cc2cc(-c3cccc(CO)c3)cc(C)c2cn1` [Example 19, 1-ethyl-3-[6-(3-hydroxymethyl-phenyl)-8-methyl-isoquinolin-3-yl]-urea], for which inhibition of growth (MIC) required 1 µg/mL (≈ 2.98 µM). The same measure, in the same setting: in the case of `CCNC(=O)Nc1cc2cc(-c3cccc(O)c3)cc(C)c2cn1` [Example 20, 1-ethyl-3-[6-(3-hydroxy-phenyl)-8-methyl-isoquinolin-3-yl]-urea] it was 0.5 µg/mL (≈ 1.56 µM); in that of `CCNC(=O)Nc1cc2cc(-c3ccncc3)cc(C)c2cn1` [Example 21, 1-ethyl-3-(8-methyl-6-pyridin-4-yl-isoquinolin-3-yl)-urea], 1 µg/mL (≈ 3.26 µM); in that of `CCNC(=O)Nc1cc2cc(-c3cccc(S(N)(=O)=O)c3)cc(C)c2cn1` [Example 22, 3-[3-(3-ethyl-ureido)-8-methyl-isoquinolin-6-yl]-benzenesulfonamide], 0.5 µg/mL (≈ 1.3 µM). The same measure, in the same setting: as for `CCNC(=O)Nc1cc2cc(-c3ccccc3C(=O)N(C)C)cc(C)c2cn1` [Example 23, 2-[3-(3-ethyl-ureido)-8-methyl-isoquinolin-6-yl]-N,N-dimethyl-benzamide], the figure is 8 µg/mL (≈ 21.3 µM). The same measure, in the same setting: as for `CCNC(=O)Nc1cc2cc(-c3ccc(C(=O)N(C)C)cc3)cc(C)c2cn1` [Example 24, 4-[3-(3-ethyl-ureido)-8-methyl-isoquinolin-6-yl]-N,N-dimethyl-benzamide], the figure is 0.25 µg/mL (≈ 0.664 µM); as for `CCNC(=O)Nc1cc2cc(-c3ccc4nccn4c3)cc(C)c2cn1` [Example 25, 1-ethyl-3-(6-imidazo[1,2-a]pyridin-6-yl-8-methyl-isoquinolin-3-yl)-urea], 0.5 µg/mL (≈ 1.45 µM). In turn, `CCNC(=O)Nc1cc2cc(-c3cccc(CN)c3)cc(C)c2cn1` [Example 26, 1-[6-(3-(aminomethyl)-phenyl)-8-methyl-isoquinolin-3-yl]-3-ethyl-urea] yielded an MIC of 0.5 µg/mL (≈ 1.5 µM). Turning to `CCNC(=O)Nc1cc2c(-c3ccnc(Cl)c3)ccc(C)c2cn1` [Example 27, 1-[5-(2-chloro-pyridin-4-yl)-8-methyl-isoquinolin-3-yl]-3-ethyl-urea], inhibition of growth (MIC) required 2 µg/mL (≈ 5.87 µM). Same read-out and setting: as for `CCNC(=O)Nc1cc2cc(-c3cn[nH]c3)cc(C)c2cn1` [Example 28, 1-ethyl-3-[8-methyl-6-(1H-pyrazol-4-yl)-isoquinolin-3-yl]-urea], the figure is 2 µg/mL (≈ 6.77 µM); as for `CCNC(=O)Nc1cc2cc(-c3cccc(C(C)=O)c3)cc(C)c2cn1` [Example 29, 1-[6-(3-acetyl-phenyl)-8-methyl-isoquinolin-3-yl]-3-ethyl-urea], 0.5 µg/mL (≈ 1.44 µM); as for `CCNC(=O)Nc1cc2cc(-c3ccc(C(N)=O)cc3)cc(C)c2cn1` [Example 30, 4-[3-(3-ethyl-ureido)-8-methyl-isoquinolin-6-yl]-benzamide], 1 µg/mL (≈ 2.87 µM).

As to `CCNC(=O)Nc1cc2cc(-c3cccc(C(N)=O)c3)cc(C)c2cn1` [Example 31, 3-[3-(3-ethyl-ureido)-8-methyl-isoquinolin-6-yl]-benzamide], inhibition of growth (MIC) required 1 µg/mL (≈ 2.87 µM). The same measure, in the same setting: in the case of `CCNC(=O)Nc1cc2c(F)ccc(Br)c2cn1` [Example 32, 1-(8-bromo-5-fluoro-isoquinolin-3-yl)-3-ethyl-urea] it was 16 µg/mL (≈ 51.3 µM).

With `CCNC(=O)Nc1cc2c(F)c(-c3cccnc3)cc(-c3ccc(C(=O)O)cc3)c2cn1` [Example 33, 4-[3-(3-ethyl-ureido)-5-fluoro-6-pyridin-3-yl-isoquinolin-8-yl]-benzoic acid], the MIC was found to be 1 µg/mL (≈ 2.32 µM). This MIC is about 16-fold lower than that of the molecule before.

For the molecule `CCNC(=O)Nc1cc2c(-c3ccc(CO)cc3)ccc(C)c2cn1` [Example 34, 1-ethyl-3-[5-(4-hydroxymethyl-phenyl)-8-methyl-isoquinolin-3-yl]-urea], the MIC was 2 µg/mL (≈ 5.96 µM). The molecule `CCNC(=O)Nc1cc2c(-c3ccc(S(N)(=O)=O)cc3)ccc(C)c2cn1` [Example 35, 4-[3-(3-ethyl-ureido)-8-methyl-isoquinolin-5-yl]-benzenesulfonamide] displayed an MIC of 0.5 µg/mL (≈ 1.3 µM). Molecule `CCNC(=O)Nc1cc2cc(-c3cnc4ccccc4c3)cc(C)c2cn1` [Example 36, 1-ethyl-3-(8-methyl-6-quinolin-3-yl-isoquinolin-3-yl)-urea] registered an MIC of 0.125 µg/mL (≈ 0.351 µM). On to `CCNC(=O)Nc1cc2cc(-c3cccc(NC(C)=O)c3)cc(C)c2cn1` [Example 37, N-{3-[3-(3-ethyl-ureido)-8-methyl-isoquinolin-6-yl]-phenyl}-acetamide], for which the minimum inhibitory concentration (MIC) was found to be 1 µg/mL (≈ 2.76 µM). For the molecule `CCNC(=O)Nc1cc2cc(-c3ccc(S(N)(=O)=O)cc3)cc(C)c2cn1` [Example 38, 4-[3-(3-ethyl-ureido)-8-methyl-isoquinolin-6-yl]-benzenesulfonamide], it took 1 µg/mL (≈ 2.6 µM) to inhibit growth (MIC). Molecule `CCNC(=O)Nc1cc2cc(-c3cncc(C)c3)cc(C)c2cn1` [Example 39, 1-ethyl-3-[8-methyl-6-(5-methyl-pyridin-3-yl)-isoquinolin-3-yl]-urea] yielded an MIC of 1 µg/mL (≈ 3.12 µM). Still for that read-out and setting: in the case of `CCNC(=O)Nc1cc2c(-c3ccnc(C)c3)ccc(C)c2cn1` [Example 40, 1-ethyl-3-[8-methyl-5-(2-methyl-pyridin-4-yl)-isoquinolin-3-yl]-urea] it was 2 µg/mL (≈ 6.24 µM); in that of `CCNC(=O)Nc1cc2c(-c3ccnc(F)c3)ccc(C)c2cn1` [Example 41, 1-ethyl-3-[5-(2-fluoro-pyridin-4-yl)-8-methyl-isoquinolin-3-yl]-urea], 2 µg/mL (≈ 6.17 µM). Still for that read-out and setting: as for `CCNC(=O)Nc1cc2c(-c3ccnc(OC)c3)ccc(C)c2cn1` [Example 42, 1-ethyl-3-[5-(2-methoxy-pyridin-4-yl)-8-methyl-isoquinolin-3-yl]-urea], the figure is 2 µg/mL (≈ 5.95 µM).
